# Experimental data published in patent publication US10933147B2, “Imaging of metastatic or recurrent cancer” (Blue Earth Diagnostics Limited, priority 2015, dated 2021).
# Tests used:
# [1] = human, in vivo
# Experimental: FIGS. 1a and 1b show accumulation of FACBC in the Virchow's node when the FACBC is injected into the left arm.
# In some embodiments, the right arm may be preferred as stasis in the axillary vein upon injection in the left arm may be misinterpreted as a metastatic lymph node called Virchow's node, which is located in the left supraclavicular fossa (the area above the left clavicle, or collar bone). For example, FIGS. 1a and 1b show accumulation of FACBC in the Virchow's node when the FACBC is injected into the left arm.
# [2] = system: known prostate carcinoma recurrence; test: PET time activity curves in prostate carcinoma recurrence; format: in vivo, human
# Experimental: (§1) Regions in marrow (ilium), muscle (gluteus), and bladder reached a plateau at 4.5 minutes that remained constant throughout the imaging period.
# (§2) The time required for [^18F]-FACBC to accumulate in tumour cells in steps a) and c) of the aspects described above may be about 5 minutes or less after [^18F]-FACBC is administered. Optionally, the time taken for [^18F]-FACBC to accumulate is 3 to 5 minutes, for example 4 minutes. This therefore allows image acquisition to start 3 to 5 minutes after administration, for example 4 minutes after [^18F]-FACBC administration. […] Regions in marrow (ilium), muscle (gluteus), and bladder reached a plateau at 4.5 minutes that remained constant throughout the imaging period.
# [3] = PET time activity curves in reference regions; format: in vivo, human; conditions: regions in marrow (ilium), muscle (gluteus), and bladder; remained constant throughout the imaging period
# Experimental: as §1, §2
smiles,measurement,setting,value
"N[C@]1(C(=O)O)C[C@@H](F)C1 [fluciclovine, anti-1-amino-3-^18F-fluorocyclobutane-1-carboxylic acid]",standardized uptake value (SUV),[1],> 200
same,plateau of uptake lasts to,"[2]; known prostate carcinoma recurrence, after the maximum",30 min
same,gradual clearance,"[2]; known prostate carcinoma recurrence, after the plateau, out to 60 minutes",9 %/min
same,time of maximum uptake,[2]; rapid uptake in known prostate carcinoma recurrence,4.5 min
same,time at which plateau is reached,[3],4.5 min
